Eleven compounds from patent publication US9504669B2, “Spliceostatin analogs and methods for their preparation” (PFIZER INC., priority 2012, dated 2016) can be followed below.

Holding throughout (format): cell-based
Holding throughout (conditions): free compounds (natural products and synthetic analogs), cell viability 96 hours after treatment

Assay [1] relates to BT474 (breast cancer) cells. The assay is described as follows: In vitro cell assay (MTS cell viability), BT474. The procedure: (§1) Target expressing (BT474 (breast cancer), N87 (gastric cancer), HCC1954 (breast cancer), MDA-MB-361-DYT2 (breast cancer)) or non-expressing (MDA-MB-468) cells were seeded in 96-well cell culture plates for 24 hours before treatment. Cells were treated with 3-fold serially diluted antibody-drug conjugates or free compounds (i.e., no antibody conjugated to the drug) in duplicate at 10 concentrations. Cell viability was determined by CellTiter 96® AQueous One Solution Cell Proliferation MTS Assay (Promega, Madison Wis.) 96 hours after treatment. Relative cell viability was determined as percentage of untreated control. IC50 values were calculated using a four parameter logistic model #203 with XLfit v4.2 (IDBS, Guildford, Surry, UK). The potency ranged upward from 0.0002 nm. Similar procedures and techniques were employed.

For assay [2], the system named is MDA-MB-361-DYT2 (breast cancer) cells. As to the kind of experiment: In vitro cell assay (MTS cell viability), MDA-MB-361-DYT2. The procedure: as §1
Assay [3] concerns N87 (gastric cancer) cells. As to the kind of experiment: In vitro cell assay (MTS cell viability), N87. The procedure: as §1

Where a name gives a salt, the structure may show the parent alone.

In the case of `CC(=O)O[C@@H](C)/C=C\C(=O)N[C@@H]1C[C@H](C)[C@H](C/C=C(C)/C=C/[C@@H]2C[C@]3(CO3)C[C@@H](CC(=O)NN)O2)O[C@@H]1C` [#B7, (2S,3Z)-5-{[(2R,3R,5S,6S)-6-{(2E,4E)-5-[(3S,5S,7S)-7-(2-hydrazinyl-2-oxoethyl)-1,6-dioxaspiro[2.5]oct-5-yl]-3-methylpenta-2,4-dien-1-yl}-2,5-dimethyltetrahydro-2H-pyran-3-yl]amino}-5-oxopent-3-en-2-yl acetate], the IC50 in assay [1] (Homo sapiens, BT-474) is 1.12 nM; in assay [2] (96 h), 1.88 nM; in assay [3] (96 h), 0.344 nM.
`CC(/C=C/[C@@H]1C[C@]2(CO2)C[C@@H](CC(N)=O)O1)=C\C[C@@H]1O[C@H](C)[C@H](NC(=O)/C=C\[C@H](C)OC(=O)N2CCNCC2)C[C@@H]1C` [#B136, (2S,3Z)-5-{[(2R,3R,5S,6S)-6-{(2E,4E)-5-[(3S,5S,7S)-7-(2-amino-2-oxoethyl)-1,6-dioxaspiro[2.5]oct-5-yl]-3-methylpenta-2,4-dien-1-yl}-2,5-dimethyltetrahydro-2H-pyran-3-yl]amino}-5-oxopent-3-en-2-yl piperazine-1-carboxylate, acetate salt]: the IC50 in assay [1] (Homo sapiens, BT-474) was 25.5 nM; in assay [2] (96 h), greater than 100 nM; in assay [3] (96 h) it was 90.1 nM.
The like results for `CC(/C=C/[C@@H]1C[C@]2(CO2)C[C@@H](CC(N)=O)O1)=C\C[C@@H]1O[C@H](C)[C@H](NC(=O)/C=C\[C@H](C)OC(=O)N2CCCCC2)C[C@@H]1C` [#B40, (2S,3Z)-5-{[(2R,3R,5S,6S)-6-{(2E,4E)-5-[(3S,5S,7S)-7-(2-amino-2-oxoethyl)-1,6-dioxaspiro[2.5]oct-5-yl]-3-methylpenta-2,4-dien-1-yl}-2,5-dimethyltetrahydro-2H-pyran-3-yl]amino}-5-oxopent-3-en-2-yl piperidine-1-carboxylate] were, in that order, 1.86 nM, 5.84 nM and 6.76 nM.
The like results for `CC(/C=C/[C@@H]1C[C@]2(CO2)C[C@@H](CN)O1)=C\C[C@@H]1O[C@H](C)[C@H](NC(=O)/C=C\[C@H](C)O)C[C@@H]1C` [#B139, (2Z,4S)—N-[(2R,3R,5S,6S)-6-{(2E,4E)-5-[(3R,5S,7S)-7-(aminomethyl)-1,6-dioxaspiro[2.5]oct-5-yl]-3-methylpenta-2,4-dien-1-yl}-2,5-dimethyltetrahydro-2H-pyran-3-yl]-4-hydroxypent-2-enamide, acetate salt] were, in that order, 5.49 nM, 13.4 nM and 6.51 nM.
For the compound `CC(=O)O[C@@H](C)/C=C\C(=O)N[C@@H]1C[C@H](C)[C@H](C/C=C(C)/C=C/[C@H]2O[C@H](CC(=O)NCc3ccc(S(=O)(=O)N(C)C)cc3)C[C@@]3(CO3)[C@@H]2O)O[C@@H]1C` [#B93, (2S,3Z)-5-{[(2R,3R,5S,6S)-6-{(2E,4E)-5-[(3R,4R,5R,7S)-7-(2-{[4-(dimethylsulfamoyl)benzyl]amino}-2-oxoethyl)-4-hydroxy-1,6-dioxaspiro[2.5]oct-5-yl]-3-methylpenta-2,4-dien-1-yl}-2,5-dimethyltetrahydro-2H-pyran-3-yl[amino}-5-oxopent-3-en-2-yl acetate], the IC50 in assay [1] came out at 2.27 nM; in assay [2], 3.96 nM; in assay [3], 0.647 nM.
As for `CC(=O)O[C@@H](C)/C=C\C(=O)N[C@@H]1C[C@H](C)[C@H](C/C=C(C)/C=C/[C@H]2O[C@H](CC(N)=O)C[C@@]3(CO3)[C@@H]2O)O[C@@H]1C` [#B9, (2S,3Z)-5-{[(2R,3R,5S,6S)-6-{(2E,4E)-5-[(3R,4R,5R,7S)-7-(2-amino-2-oxoethyl)-4-hydroxy-1,6-dioxaspiro[2.5]oct-5-yl]-3-methylpenta-2,4-dien-1-yl}-2,5-dimethyltetrahydro-2H-pyran-3-yl]amino}-5-oxopent-3-en-2-yl acetate], the IC50 in assay [1] (Homo sapiens, BT-474) was 3.26 nM; in assay [2] (96 h), 5.26 nM; in assay [3] (96 h), 1.34 nM.
The like results for `CC(/C=C/[C@@H]1C[C@]2(CO2)C[C@@H](CC(N)=O)O1)=C\C[C@@H]1O[C@H](C)[C@H](NC(=O)/C=C\[C@H](C)OC(=O)N2CCN(C)CC2)C[C@@H]1C` [#B137, (2S,3Z)-5-{[(2R,3R,5S,6S)-6-{(2E,4E)-5-[(3S,5S,7S)-7-(2-amino-2-oxoethyl)-1,6-dioxaspiro[2.5]oct-5-yl]-3-methylpenta-2,4-dien-1-yl}-2,5-dimethyltetrahydro-2H-pyran-3-yl]amino}-5-oxopent-3-en-2-yl-4-methylpiperazine-1-carboxylate] were, in that order, 1.8 nM, 10.3 nM and 5.59 nM.
On to `CC(=O)/C=C\C(=O)N[C@@H]1C[C@H](C)[C@H](C/C=C(C)/C=C/[C@@H]2C[C@]3(CO3)C[C@@H](CC(N)=O)O2)O[C@@H]1C` [#B129, (2Z)—N-[(2R,3R,5S,6S)-6-{(2E,4E)-5-[(3S,5S,7S)-7-(2-amino-2-oxoethyl)-1,6-dioxaspiro[2.5]oct-5-yl]-3-methylpenta-2,4-dien-1-yl}-2,5-dimethyltetrahydro-2H-pyran-3-yl]-4-oxopent-2-enamide], for which the IC50 is greater than 100 nM in assay [1] (Homo sapiens, BT-474); greater than 100 nM in assay [2] (96 h); greater than 100 nM in assay [3] (96 h).
With `CC(=O)O[C@@H](C)/C=C\C(=O)N[C@@H]1C[C@H](C)[C@H](C/C=C(C)/C=C/[C@H]2O[C@H](CC(=O)NCc3ccc(N)c(C(F)(F)F)c3)C[C@@]3(CO3)[C@@H]2O)O[C@@H]1C` [#B88, (2S,3Z)-5-{[(2R,3R,5S,6S)-6-{(2E,4E)-5-[(3R,4R,5R,7S)-7-(2-{[4-amino-3-(trifluoromethyl)benzyl]amino}-2-oxoethyl)-4-hydroxy-1,6-dioxaspiro[2.5]oct-5-yl]-3-methylpenta-2,4-dien-1-yl}-2,5-dimethyltetrahydro-2H-pyran-3-yl]amino}-5-oxopent-3-en-2-yl acetate], the IC50 turned out to be 1.8 nM in assay [1] (Homo sapiens, BT-474); 2.96 nM in assay [2] (96 h); 0.73 nM in assay [3] (96 h).
The like results for `CC(=O)O[C@@H](C)/C=C\C(=O)N[C@@H]1C[C@H](C)[C@H](C/C=C(C)/C=C/[C@H]2O[C@H](CC(=O)NCc3ccc(S(N)(=O)=O)cc3)C[C@@]3(CO3)[C@@H]2O)O[C@@H]1C` [#B10, (2S,3Z)-5-{[(2R,3R,5S,6S)-6-{(2E,4E)-5-[(3R,4R,5R,7S)-4-hydroxy-7-{2-oxo-2-[(4-sulfamoylbenzyl)amino]ethyl}-1,6-dioxaspiro[2.5]oct-5-yl]-3-methylpenta-2,4-dien-1-yl}-2,5-dimethyltetrahydro-2H-pyran-3-yl]amino}-5-oxopent-3-en-2-yl acetate] were, in that order, 43.5 nM, 77.5 nM and 12.1 nM.
The like results for `CSCCNC(=O)C[C@@H]1C[C@@]2(CO2)C[C@@H](/C=C/C(C)=C/C[C@@H]2O[C@H](C)[C@H](NC(=O)/C=C\[C@H](C)OC(C)=O)C[C@@H]2C)O1` [#B103, (2S,3Z)-5-{[(2R,3R,5S,6S)-2,5-dimethyl-6-{(2E,4E)-3-methyl-5-[(3S,5S,7S)-7-(2-{[2-(methylsulfanyl)ethyl]amino}-2-oxoethyl)-1,6-dioxaspiro[2.5]oct-5-yl]penta-2,4-dien-1-yl}tetrahydro-2H-pyran-3-yl]amino}-5-oxopent-3-en-2-yl acetate] were, in that order, 4.03 nM, 4.25 nM and 1.6 nM.
